Values after ≈ are worked out from the molar mass of the structure shown. Read-outs that look alike come from different tables or passages of the source.
Tests used:
Den-2 virus (P23085) = test: Plaque reduction assay, Den-2 in BHK 21 cells; format: cell-based, Dengue-2 virus; conditions: non-cytotoxic concentrations
in vitro [1] = conditions: pig
in vitro [2] = conditions: hamster
JEV (P20778) [3] = test: Plaque reduction assay, JEV in PS cells; conditions: for IC50: Japanese encephalitis virus
WNV (G22886) = test: Plaque reduction assay, WNV in PS cells; conditions: for IC50: West Nile virus
JEV, WNV and Den-2 = test: Cytopathic effect (CPE) inhibition assay; format: cell-based; conditions: screen against JEV, doubling dilutions beginning with CC50
[4] = test system: JEV replication in PS cells; test: Kinetics of antiviral activity: staggered addition of SCH 16 to JEV infected PS cells; format: cell-based, Japanese Encephalitis Virus; conditions: for Inhibition of JEV replication (viral RNA, viral antigen, virus yield): read at 48 hours; for JEV antigen by immunofluorescence: Figure 3 Panel B
[5] = test system: JEV replication in PS cells; test: Minimum contact time: SCH 16 removed at time points from JEV infected PS cells; format: cell-based, Japanese Encephalitis Virus
JEV = test: In vivo evaluation by intracerebral JEV challenge; set-up: species or system Swiss albino mice
JEV (P20778) [6] = test: In vivo evaluation by peripheral (intraperitoneal) JEV challenge; set-up: species or system Swiss albino mice; conditions: for Protection: mice, 50LD50 JEV intraperitoneal
JEV translation = test: In vitro translation of RNA from SCH 16 treated JEV infected PS cells
[7] = read-out: IC50, plaque reduction, JEV (molar)
[8] = read-out: IC50, plaque reduction, WNV (molar)

NC(=O)c1ncn([C@@H]2O[C@H](CO)[C@@H](O)[C@H]2O)n1 [Ribavirin, reference compound]
Antiviral activity against Den-2 plaque formation (Den-2 virus (P23085)): dose dependent inhibition
CC50 (in vitro [1]): 50 µg/mL (≈ 205 µM)
CC50 (in vitro [2]): 200 µg/mL (≈ 819 µM)
IC50 (JEV (P20778) [3]; 72 h, read-out: IC50, plaque reduction, JEV): 3.9 µg/mL
IC50 (JEV (P20778) [3]; [7]): 16 µM
IC50 (WNV (G22886); read-out: IC50, plaque reduction, WNV): 1.7 µg/mL
IC50 (WNV (G22886); [8]): 7 µM

COc1cc(-c2cnc(/N=C3\C(=O)N(CN4CCN(c5ccc([N+](=O)[O-])cc5)CC4)c4ccccc43)nc2N)cc(OC)c1OC [SCH 16]
Antiviral activity against Den-2 plaque formation (Den-2 virus (P23085)): No antiviral activity
Inhibition of CPE (JEV, WNV and Den-2): showed inhibition of CPE
Inhibition of JEV replication (viral RNA, viral antigen, virus yield) ([4]; 76 μg/ml added at 2, 4, 6 and 8 hours post-infection): completely inhibit
JEV antigen by immunofluorescence ([4]; SCH 16 added at 0, 2, 4, 6 and 8 hrs post infection): undetectable
JEV antigen by immunofluorescence ([4]; SCH 16 added at 10, 12 and 14 hours post infection): positive for viral antigen
Inhibition of JEV replication (viral RNA, viral antigen, virus yield) ([4]; added beyond 8 hours post infection): did not completely inhibit
Minimum contact period required to completely inhibit virus replication ([5]; JEV infected PS cells): 8 h
Inhibition of virus replication (viral antigen, viral RNA, infectious virus yield) ([5]; SCH 16 in contact with infected cultures for more than 8 hours post-infection): complete inhibition of virus replication
Inhibition of virus replication (viral antigen, viral RNA, infectious virus yield) ([5]; SCH16 withdrawn at earlier time points): no inhibition of virus replication
Day of death (JEV; mouse, in vivo): 9 days
Prolonged survival time between treated and untreated mice (JEV; mouse, in vivo): 3 days
Protection (JEV; mouse, in vivo): no protection
Day post-infection when symptoms started appearing (JEV; treated mice, intracerebral challenge, untreated sick by day 3): 7 days
Protection (JEV (P20778) [6]; 200 mg/kg body weight oral twice daily): 25%
Protection (JEV (P20778) [6]; 400 mg/kg body weight oral twice daily): 50%
Protection (JEV (P20778) [6]; 500 mg/kg body weight oral twice daily): complete protection
Prevention of mortality (JEV (P20778) [6]; mouse, in vivo): 100%
Viral RNA in brain homogenate by RT-PCR (JEV (P20778) [6]; mouse, in vivo): viral RNA was present
Viral antigen in brain smears by immunofluorescent staining (JEV (P20778) [6]; mouse, in vivo): no viral antigen could be demonstrated
Virus isolation from brain tissue of surviving mice (JEV (P20778) [6]; mouse, in vivo): could not be isolated
CC50 (in vitro [1]): 76 µg/mL (≈ 122 µM)
CC50 (in vitro [2]): 126 µg/mL (≈ 202 µM)
IC50 (JEV (P20778) [3]; read-out: IC50, concentration inhibiting 50% of the plaques produced by JEV): 16 µg/mL
IC50 (JEV (P20778) [3]; [7]): 25 µM
Therapeutic Index (TI), CC50/IC50, JEV (JEV (P20778) [3]; ratio of CC50 to IC50): 5
IC50 (WNV (G22886); read-out: IC50, concentration inhibiting 50% of the plaques produced by WNV): 4 µg/mL
IC50 (WNV (G22886); [8]): 6 µM
Therapeutic Index (TI), CC50/IC50, WNV (WNV (G22886); ratio of CC50 to IC50): 19
In vitro translation of viral RNA into JEV proteins (JEV translation; RNA from JEV infected cells treated with SCH 16 for 4 hours): failed to translate into JEV proteins
In vitro translation of viral RNA into JEV proteins (JEV translation; RNA from infected cells treated with SCH 16 at 10 hours): showed the presence of JEV proteins

Source: publication PMC2408923, “N-methylisatin-beta-thiosemicarbazone derivative (SCH 16) is an inhibitor of Japanese encephalitis virus infection in vitro and in vivo” (Virology Journal, 2008)
